From patent US20230103791A1 (GLAXOSMITHKLINE INTELLECTUAL PROPERTY DEVELOPMENT LIMITED, priority 2019, published 2023) come the findings set out here.

Each structure is given as a SMILES string.

T1 sequence (Q9Y5Y9 whole entry): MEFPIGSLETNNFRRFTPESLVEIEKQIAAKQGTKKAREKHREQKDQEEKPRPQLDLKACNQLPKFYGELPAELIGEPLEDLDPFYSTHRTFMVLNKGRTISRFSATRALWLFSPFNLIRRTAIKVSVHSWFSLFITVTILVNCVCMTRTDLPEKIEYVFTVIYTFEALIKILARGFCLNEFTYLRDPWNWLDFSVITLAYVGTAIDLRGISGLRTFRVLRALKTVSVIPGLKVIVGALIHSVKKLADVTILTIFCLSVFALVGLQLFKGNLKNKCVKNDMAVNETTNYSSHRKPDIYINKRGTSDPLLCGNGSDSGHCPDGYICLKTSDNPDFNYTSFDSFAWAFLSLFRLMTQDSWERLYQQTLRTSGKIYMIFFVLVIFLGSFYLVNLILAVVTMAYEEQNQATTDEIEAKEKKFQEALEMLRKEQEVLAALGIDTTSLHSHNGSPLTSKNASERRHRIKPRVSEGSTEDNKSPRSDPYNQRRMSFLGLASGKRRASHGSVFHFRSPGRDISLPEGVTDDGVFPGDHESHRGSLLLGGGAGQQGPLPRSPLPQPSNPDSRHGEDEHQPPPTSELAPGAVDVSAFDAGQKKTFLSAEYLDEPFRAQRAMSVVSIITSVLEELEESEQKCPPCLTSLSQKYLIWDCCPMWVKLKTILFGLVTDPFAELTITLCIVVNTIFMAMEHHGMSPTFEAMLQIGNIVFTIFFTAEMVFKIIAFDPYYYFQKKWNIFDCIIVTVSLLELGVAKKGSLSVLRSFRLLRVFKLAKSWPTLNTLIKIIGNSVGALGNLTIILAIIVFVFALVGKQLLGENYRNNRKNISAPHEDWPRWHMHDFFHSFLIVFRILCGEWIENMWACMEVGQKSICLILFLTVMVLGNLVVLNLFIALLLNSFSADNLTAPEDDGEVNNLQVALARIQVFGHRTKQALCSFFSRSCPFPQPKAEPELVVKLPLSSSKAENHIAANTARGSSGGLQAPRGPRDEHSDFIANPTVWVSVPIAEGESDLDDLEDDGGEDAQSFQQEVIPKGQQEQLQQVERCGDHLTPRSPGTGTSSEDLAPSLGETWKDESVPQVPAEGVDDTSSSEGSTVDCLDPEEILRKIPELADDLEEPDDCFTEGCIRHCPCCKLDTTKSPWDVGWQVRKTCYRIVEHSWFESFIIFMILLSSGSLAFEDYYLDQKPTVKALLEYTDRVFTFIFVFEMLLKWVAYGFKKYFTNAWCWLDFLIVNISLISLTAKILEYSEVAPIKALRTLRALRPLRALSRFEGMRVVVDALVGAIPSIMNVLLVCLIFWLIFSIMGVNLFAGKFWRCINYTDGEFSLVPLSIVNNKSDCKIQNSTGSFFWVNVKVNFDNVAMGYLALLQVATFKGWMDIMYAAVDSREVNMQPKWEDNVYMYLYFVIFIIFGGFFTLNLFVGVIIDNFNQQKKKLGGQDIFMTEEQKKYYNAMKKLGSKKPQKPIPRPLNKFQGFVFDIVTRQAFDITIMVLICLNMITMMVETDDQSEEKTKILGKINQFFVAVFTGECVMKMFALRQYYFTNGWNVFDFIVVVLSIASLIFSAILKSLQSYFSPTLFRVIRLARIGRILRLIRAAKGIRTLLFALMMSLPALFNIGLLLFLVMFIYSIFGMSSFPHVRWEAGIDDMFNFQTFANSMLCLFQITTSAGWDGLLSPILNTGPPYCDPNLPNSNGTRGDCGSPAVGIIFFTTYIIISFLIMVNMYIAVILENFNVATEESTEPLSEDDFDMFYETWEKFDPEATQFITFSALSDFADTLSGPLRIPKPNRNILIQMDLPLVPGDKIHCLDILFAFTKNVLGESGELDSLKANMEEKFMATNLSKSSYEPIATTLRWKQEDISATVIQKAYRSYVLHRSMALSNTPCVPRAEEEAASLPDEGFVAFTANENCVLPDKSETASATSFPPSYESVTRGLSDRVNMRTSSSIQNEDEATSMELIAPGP
T1 sequence (Q07699 19-218 partner): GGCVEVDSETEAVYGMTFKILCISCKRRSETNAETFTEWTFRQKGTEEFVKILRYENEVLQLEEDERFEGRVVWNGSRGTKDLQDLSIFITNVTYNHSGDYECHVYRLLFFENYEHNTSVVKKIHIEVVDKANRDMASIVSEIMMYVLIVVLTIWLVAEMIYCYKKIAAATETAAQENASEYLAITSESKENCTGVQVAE

The experiment concerns the target T1, human Nav1.8 (Homo sapiens, UniProt Q9Y5Y9).
T1 construct: expressed in transfected cells; host or cells: HEK293 (HEK293-Nav1.8)
As to the kind of experiment: Nav1.8 sodium channels assay, QPatch 48 HTX electrophysiology in HEK293-Nav1.8 cells. To be noted: at least one set of experimental runs; read-out: average pIC50 value against Nav1.8 (converted). Type of experiment: cell-based. Put shortly:
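HEK293 cells co-expressing human Nav1.8, Navβ1 and TREK1 were voltage-clamped on QPatch 48 HTX. The V1/2 protocol ran at 0.07 Hz: hold −100 mV, 20 ms to 0 mV, 8 s at −46 mV, 20 ms at −100 mV, then 20 ms at 0 mV (P2). P2 current was fitted over 6-8 concentrations for IC50, with vehicle wells used to correct for run-down.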
Background: Patch clamp records ionic current or voltage across a cell membrane.
For the molecule `Cc1cc(F)ccc1N1CN(c2ccc(=O)[nH]c2C)C(=O)c2cc(Cl)c(Cl)nc21` [Example 73, 6,7-dichloro-1-(4-fluoro-2-methylphenyl)-3-(2-methyl-6-oxo-1,6-dihydropyridin-3-yl)-2,3-dihydropyrido[2,3-d]pyrimidin-4(1H)-one], the IC50 is at most 0.1 µM. Consider `Cc1cc(OC(F)(F)F)ccc1N1CN(c2ccc(=O)[nH]c2C)C(=O)c2c1ccc(Cl)c2F` [Example 74, 6-chloro-5-fluoro-1-(2-methyl-4-(trifluorometh-oxy)phenyl)-3-(2-methyl-6-oxo-1,6-dihydropyridin-3-yl)-2,3-dihydroquinazolin-4(1H)-one], for which the IC50 was at most 0.1 µM. Regarding `Cc1cc(F)ccc1N1CN(c2ccc(=O)[nH]c2C)C(=O)c2cc(C#N)ccc21` [Example 75, 1-(4-fluoro-2-methylphenyl)-3-(2-methyl-6-oxo-1,6-dihydropyridin-3-yl)-4-oxo-1,2,3,4-tetrahydroquin-azoline-6-carbonitrile], the IC50 is 0.126 to 0.631 µM. For `Cc1[nH]c(=O)ccc1N1CN(c2ccc(F)cc2C(C)C)c2ccc(Cl)cc2C1=O` [Example 76, 6-chloro-1-(4-fluoro-2-isopropylphenyl)-3-(2-methyl-6-oxo-1,6-dihydropyridin-3-yl)-2,3-dihydroquinazolin-4(1H)-one] the value was at most 0.1 µM. For `Cc1[nH]c(=O)ccc1N1CN(c2ccc(F)c(O)c2C)c2cc(C(F)(F)F)ccc2C1=O` [Example 77, 1-(4-fluoro-3-hydroxy-2-methylphenyl)-3-(2-methyl-6-oxo-1,6-dihydropyridin-3-yl)-7-(trifluoromethyl)-2,3-dihydroquinazolin-4(1H)-one] the value was 0.126 to 0.631 µM; for `Cc1cc(F)ccc1N1CN(c2ccc(=O)[nH]c2)C(=O)c2c1ccc(Cl)c2F` [Example 78, 6-chloro-5-fluoro-1-(4-fluoro-2-methylphenyl)-3-(6-oxo-1,6-dihydropyridin-3-yl)-2,3-dihydroquinazolin-4(1H)-one], 0.126 to 0.631 µM. The same measure for `Cc1cc(F)ccc1N1CN(c2ccc(=O)[nH]c2C)C(=O)c2c1ccc(Cl)c2F` [Example 79, 6-chloro-5-fluoro-1-(4-fluoro-2-methylphenyl)-3-(2-methyl-6-oxo-1,6-dihydropyridin-3-yl)-2,3-dihydroquinazolin-4(1H)-one]: at most 0.1 µM; for `Cc1cc(F)ccc1N1CN(c2ccc(=O)[nH]c2C)C(=O)c2ccc(S(C)(=O)=O)cc21` [Example 80, 1-(4-fluoro-2-methylphenyl)-3-(2-methyl-6-oxo-1,6-dihydropyridin, 3-yl)-7-(methylsulfonyl)-2,3-dihydroquinazolin-4(1H)-one]: 0.794 to 7.94 µM; for `CCc1cc(F)ccc1N1CN(c2ccc(=O)[nH]c2C)C(=O)c2cc(Cl)ccc21` [Example 81, 6-chloro-1-(2-ethyl-4-fluorophenyl)-3-(2-methyl-6-oxo-1,6-dihydropyridin-3-yl)-2,3-dihydroquinazolin-4(1H)-one]: at most 0.1 µM. Consider `Cc1cc(=O)[nH]c(C)c1N1CN(c2ccc(F)cc2C(C)C)c2ccc(Cl)cc2C1=O` [Example 82, 6-chloro-3-(2,4-dimethyl-6-oxo-1,6-dihydropyridin-3-yl)-1-(4-fluoro-2-isopropylphenyl)-2,3-dihydroquinazolin-4(1H)-one], for which the IC50 was 0.126 to 0.631 µM.

Turning to `CCc1[nH]c(=O)ccc1N1CN(c2ccc(F)cc2C(C)C)c2cc(C(F)(F)F)ccc2C1=O` [Example 83, 3-(2-ethyl-6-oxo-1,6-dihydropyridin-3-yl)-1-(4-fluoro-2-isopropylphenyl)-7-(trifluoromethyl)-2,3-dihydroquinazolin-4(1H)-one], the IC50 was at most 0.1 µM. For `Cc1cc(F)ccc1N1CN(c2c[nH]c(=O)cn2)C(=O)c2ccc(C(F)(F)F)cc21` [Example 84, 1-(4-fluoro-2-methylphenyl)-3-(5-oxo-4,5-dihydropyrazin-2-yl)-7-(trifluoromethyl)-2,3-dihydroquinazolin-4(1H)-one] the value was 0.794 to 7.94 µM. Turning to `Cc1cc2c(cc1F)C(=O)N(c1ccc(=O)[nH]c1C)CN2c1ccc(F)cc1C` [Example 85, 6-fluoro-1-(4-fluoro-2-methylphenyl)-7-methyl-3-(2-methyl-6-oxo-1,6-dihydropyridin-3-yl)-2,3-dihydroquinazolin-4(1H)-one], the IC50 is at most 0.1 µM. For `Cc1[nH]c(=O)ccc1N1CN(c2ccccc2)c2cc(C(F)(F)F)ccc2C1=O` [Example 86, 3-(2-methyl-6-oxo-1,6-dihydropyridin-3-yl)-1-phenyl-7-(trifluoromethyl)-2,3-dihydroquinazolin-4(1H)-one] the value was 0.794 to 7.94 µM; for `Cc1ccccc1N1CN(c2ccc(=O)[nH]c2C)C(=O)c2ccc(C(F)(F)F)cc21` [Example 87, 3-(2-methyl-6-oxo-1,6-dihydropyridin-3-yl)-1-(o-tolyl)-7-(trifluoromethyl)-2,3-dihydroquinazolin-4(1H)-one], at most 0.1 µM; for `Cc1cc(F)ccc1N1CN(c2ccc(=O)[nH]c2C)C(=O)c2c(Cl)cccc21` [Example 88, 5-chloro-1-(4-fluoro-2-methylphenyl)-3-(2-methyl-6-oxo-1,6-dihydropyridin-3-yl)-2,3-dihydroquinazolin-4(1H)-one], 0.126 to 0.631 µM.

As to `Cc1cc(F)ccc1N1CN(c2ccc(=O)[nH]c2C)C(=O)c2c(C)cccc21` [Example 89, 1-(4-fluoro-2-methylphenyl)-5-methyl-3-(2-methyl-6-oxo-1,6-dihydropyridin-3-yl)-2,3-dihydroquinazolin-4(1H)-one], the IC50 was at most 0.1 µM. Take `Cc1cc(F)ccc1N1CN(c2ccc(=O)[nH]c2C2CC2)C(=O)c2ccc(C(F)(F)F)cc21` [Example 90, 3-(2-cyclopropyl-6-oxo-1,6-dihydropyridin-3-yl)-1-(4-fluoro-2-methylphenyl)-7-(trifluoromethyl)-2,3-dihydroquinazolin-4(1H)-one]: the IC50 is at most 0.1 µM. As for `COc1cc(F)ccc1N1CN(c2ccc(=O)[nH]c2C)C(=O)c2cc(Cl)ccc21` [Example 91, 6-chloro-1-(4-fluoro-2-methoxyphenyl)-3-(2-methyl-6-oxo-1,6-dihydropyridin-3-yl)-2,3-dihydroquinazolin-4(1H)-one], the IC50 was at most 0.1 µM.

Take `Cc1cc(F)ccc1N1CN(c2cc(=O)[nH]n2C)C(=O)c2ccc(C(F)(F)F)cc21` [Example 92, 1-(4-fluoro-2-methylphenyl)-3-(2-methyl-5-oxo-2,5-dihydro-1H-pyrazol-3-yl)-7-(trifluoromethyl)-2,3-dihydroquinazolin-4(1H)-one]: the IC50 is 0.126 to 0.631 µM. Take `Cc1[nH]c(=O)ccc1N1CN(c2ccc(F)cc2C(C)C)c2cc(F)ccc2C1=O` [Example 93, 7-fluoro-1-(4-fluoro-2-isopropylphenyl)-3-(2-methyl-6-oxo-1,6-dihydropyridin-3-yl)-2,3-dihydroquinazolin-4(1H)-one]: the IC50 is at most 0.1 µM.

Regarding `Cc1cc(F)ccc1N1CN(c2c(C)nc(=O)[nH]c2C)C(=O)c2ccc(C(F)(F)F)cc21` [Example 94, 3-(4,6-dimethyl-2-oxo-1,2-dihydropyrimidin-5-yl)-1-(4-fluoro-2-methylphenyl)-7-(trifluoromethyl)-2,3-dihydroquinazolin-4(1H)-one], the IC50 was 0.794 to 7.94 µM. For `Cc1[nH]c(=O)ccc1N1CN(c2ccc(F)cc2C(C)(C)C)c2ccc(Cl)cc2C1=O` [Example 95, 1-(2-(tert-butyl)-4-fluorophenyl)-6-chloro-3-(2-methyl-6-oxo-1,6-dihydropyridin-3-yl)-2,3-dihydroquinazolin-4(1H)-one] the value was at most 0.1 µM; for `Cc1[nH]c(=O)ccc1N1CN(c2ccc(F)c(F)c2C)c2ccc(C(F)(F)F)cc2C1=O` [Example 96, 1-(3,4-difluoro-2-methylphenyl)-3-(2-methyl-6-oxo-1,6-dihydropyridin-3-yl)-6-(trifluoromethyl)-2,3-dihydroquinazolin-4(1H)-one], at most 0.1 µM; for `Cc1[nH]c(=O)ccc1N1CN(c2ccc(F)cc2C(C)C)c2ccc(Cl)c(C)c2C1=O` [Example 97, 6-chloro-1-(4-fluoro-2-isopropylphenyl)-5-methyl-3-(2-methyl-6-oxo-1,6-dihydropyridin-3-yl)-2,3-dihydroquinazolin-4(1H)-one], at most 0.1 µM. For `Cc1[nH]c(=O)ccc1N1CN(c2ccc(F)cc2C(C)C)c2cc(F)c(Cl)cc2C1=O` [Example 98, 6-chloro-7-fluoro-1-(4-fluoro-2-isopropylphenyl)-3-(2-methyl-6-oxo-1,6-dihydropyridin-3-yl)-2,3-dihydroquinazolin-4(1H)-one] the value was at most 0.1 µM; for `COc1ccc2c(c1)N(c1ccc(F)cc1C)CN(c1ccc(=O)[nH]c1C)C2=O` [Example 99, 1-(4-fluoro-2-methylphenyl)-7-methoxy-3-(2-methyl-6-oxo-1,6-dihydropyridin-3-yl)-2,3-dihydroquinazolin-4(1H)-one], at most 0.1 µM.

`Cc1cc(F)ccc1N1CN(c2ccc(=O)[nH]c2C)C(=O)c2cc(O)c(C(F)(F)F)cc21` [Example 100, 1-(4-fluoro-2-methylphenyl)-6-hydroxy-3-(2-methyl-6-oxo-1,6-dihydropyridin-3-yl)-7-(trifluoromethyl)-2,3-dihydroquinazolin-4(1H)-one]: the IC50 is 0.794 to 7.94 µM. As for `COc1cc2c(cc1C(F)(F)F)N(c1ccc(F)cc1C)CN(c1ccc(=O)[nH]c1C)C2=O` [Example 101, 1-(4-fluoro-2-methylphenyl)-6-methoxy-3-(2-methyl-6-oxo-1,6-dihydropyridin-3-yl)-7-(trifluoromethyl)-2,3-dihydroquinazolin-4(1H)-one], the IC50 is at most 0.1 µM.

As for `Cc1cc(F)ccc1N1CN(c2ccc(=O)[nH]c2C)C(=O)c2cc(Cl)cnc21` [Example 102, 6-chloro-1-(4-fluoro-2-methylphenyl)-3-(2-methyl-6-oxo-1,6-dihydropyridin-3-yl)-2,3-dihydropyrido[2,3-d]pyrimidin-4(1H)-one], the IC50 was 0.126 to 0.631 µM.
